From ChEMBL document CHEMBL1158938, “In vitro effects of tremorgenic mycotoxins” (J Nat Prod, 1991)
The source made the active and inactive calls. The rule behind the calls is not given here.

Assays:
Ileum [1] = experiment: Induction of electrically-stimulated guinea pig ileum twitch contraction at 10 ng/ml relative to control in presence of hyoscine; format: functional, Cavia porcellus
Ileum [2] = experiment: Induction of electrically-stimulated guinea pig ileum contraction at 100 ng/ml relative to control in presence of acetylcholine; format: functional, Cavia porcellus
[3] = Tremorgenic activity in ip dosed mouse; format: ADME, organism-based; settings: in vivo
Ileum [4] = experiment: Induction of electrically-stimulated guinea pig ileum contraction at 1 ug/ml relative to control in presence of acetylcholine; format: functional, Cavia porcellus
Ileum [5] = experiment: Induction of electrically-stimulated guinea pig ileum twitch contraction at 100 ng/ml relative to control in presence of hyoscine; format: functional, Cavia porcellus
Ileum [6] = experiment: Induction of electrically-stimulated guinea pig ileum contraction at 10 ng/ml relative to control in presence of acetylcholine; format: functional, Cavia porcellus
Ileum [7] = experiment: Induction of electrically-stimulated guinea pig ileum twitch contraction at 1 ug/ml relative to control in presence of hyoscine; format: functional, Cavia porcellus
Ileum [8] = experiment: Induction of guinea pig ileum contraction; format: functional, tissue-based; settings: Cavia porcellus
Ileum [9] = experiment: Induction of electrically-stimulated guinea pig ileum twitch contraction at 10 ng/ml; format: functional, tissue-based; settings: Cavia porcellus

Compound CC(C)(O)[C@H]1O[C@H]2CC[C@@]3(C)[C@@](O)(CC[C@H]4Cc5c([nH]c6ccccc56)[C@@]43C)C2=CC1=O [PAXILLINE] has an Activity (Ileum [1]) of 9%, an Activity (Ileum [2]) of 118% and an ED50 [3] of 25 mg/kg. For the same compound, the Activity (Ileum [4]) was 126%, the Activity (Ileum [5]) was 11% and the Activity (Ileum [6]) was 121%. The Activity (Ileum [7]) was 2% and the Activity (Ileum [8]) was “Dose-dependent effect”.

C=C1Cc2ccc3[nH]c4c5c3c2[C@H]2[C@@H]1C[C@@H]2C(C)(C)O[C@H]5[C@@H]1CC[C@@]2(O)[C@@]35O[C@@H]3[C@@H](O)[C@@H](C(=C)C)O[C@H]5CC[C@]2(C)[C@@]41C [PENITREM B] gave an Activity (Ileum [1]) of 12%, an Activity (Ileum [2]) of 96% and an ED50 [3] of 5 mg/kg. It also gave an Activity (Ileum [4]) of 117%, an Activity (Ileum [5]) of 10% and an Activity (Ileum [6]) of 111%. The Activity (Ileum [7]) was 10%.

COc1ccc2c3c4n(c2c1)[C@H](C=C(C)C)OOC(C)(C)C[C@@H]4N1C(=O)[C@@H]2CCCN2C(=O)[C@]1(O)[C@H]3O [VERRUCULOGEN] showed an Activity (Ileum [1]) of 7%, an Activity (Ileum [2]) of 123% and an ED50 [3] of 0.39 mg/kg. It also gave an Activity (Ileum [4]) of 109%, an Activity (Ileum [5]) of 11% and an Activity (Ileum [6]) of 127%. The Activity (Ileum [7]) was 14%, the Activity (Ileum [9]) was “Active” and the Activity (Ileum [8]) was “Dose-dependent effect”.
